# Measured values: US12419869B2, “Methods of treating multiple sclerosis” (Vanda Pharmaceuticals Inc., priority 2021, dated 2025)
# What was measured:
# [1] = system: adult subjects with relapsing MS; design: species or system human; settings: human, in vivo, 2 year
# Text: Based on the individual case review, most ALT/AST increases ≥3×ULN occurred as a single transient asymptomatic episode, resolving with continued treatment or after protocol mandated treatment discontinuation. All but one case of bilirubin increase ≥2×ULN occurred in subjects with pre-treatment bilirubin increases. One case of potential Hy's law occurred in a subject with pre-existing transaminase elevation (ALT>5×ULN), and the event fully resolved within 2 weeks after treatment discontinuation.
# In Study 1, elevations of ALT to 5-fold the upper limit of normal (ULN) or greater occurred in 4.6% of patients treated with PONVORY compared to 2.5% of patients who received teriflunomide 14 mg. […] The median time to an elevation of 3-fold the ULN was 3 months. The majority (89%) of patients with ALT increases 3-fold or greater the ULN continued treatment with PONVORY with values returning to less than three times the ULN within approximately 2-4 weeks.
# [2] = system: adult subjects with relapsing MS; test: Treatment-emergent adverse events and premature treatment discontinuation, phase III study (Study 1); assay type: in vivo, human
# Method: A total of 1438 MS patients have received PONVORY at doses of at least 2 mg daily. These patients were included in Study 1 (2-year active-controlled versus teriflunomide 14 mg) [see Clinical Studies (14)] and in a Phase 2 (6-month placebo-controlled) study in patients with MS and the uncontrolled extension studies.
# [3] = system: adult subjects with relapsing MS; test: Pulmonary function (percent predicted FEV1), Study 1; assay type: in vivo, human
# Method: In Study 1, the reduction from baseline in percent predicted FEV1 at 2 years was 8.3% in PONVORY-treated patients compared to 4.4% in patients receiving teriflunomide 14 mg. In Study 1, 7 patients discontinued PONVORY because of pulmonary adverse events. There is insufficient information to determine the reversibility of the decrease in FEV1 or FVC after treatment discontinuation. PONVORY should be used with caution in patients with severe respiratory disease (i.e., pulmonary fibrosis, asthma, and chronic obstructive pulmonary disease). Spirometric evaluation of respiratory function should be performed during therapy with PONVORY if clinically indicated.
# [4] = system: adult subjects with relapsing MS; test: EDSS, time to first 12-week / 24-week confirmed disability accumulation (CDA); assay type: in vivo, human
# Text: (§1) A 12-week CDA is an increase of at least 1.5 in EDSS for subjects with a baseline EDSS score of 0.0 or an increase of at least 1.0 in EDSS for subjects with a baseline EDSS score of 1.0 to 5.0, or an increase of at least 0.5 in EDSS for subjects with a baseline EDSS score≥5.5 which is to be confirmed after 12 weeks.
# All EDSS measurements (with or without relapse, at a scheduled or unscheduled visit) were used to determine the onset of disability accumulation. However, EDSS scores used for confirmation of disability accumulation were obtained at a scheduled visit (i.e., unscheduled visits cannot be used as confirmatory visits) outside any ongoing relapse. In this context, relapse duration is defined as period between start and end dates if available and limited to 90 days from onset if end date is not available or duration is longer than 90 days.
# In order to confirm that the EDSS increase is persistent, all EDSS measurements between the onset and the 12-week EDSS confirmation (minus 7-day visit time-window) need to show an increase in EDSS, meeting the criteria for accumulation of disability as defined above.
# as §1, with “24-week” for “12-week”, “24” for “12”
# The primary endpoint was the annualized relapse rate (ARR) over the study period. Additional outcome measures included: 1) the number of new Gd-enhancing T1 lesions from baseline to Week 108, 2) the number of new or enlarging T2 lesions (without double-counting of lesions) from baseline to Week 108, and 3) the time to 3-month and 6-month confirmed disability progression. A confirmed disability progression was defined as an increase of at least 1.5 in EDSS for patients with a baseline EDSS score of 0, an increase of at least 1.0 in EDSS for patients with a baseline EDSS score of 1.0 to 5.0, or an increase of at least 0.5 in EDSS for patients with a baseline EDSS score at least 5.5, which was confirmed after 3 months and 6 months.
smiles,measurement,setting,value
"C/C(O)=C(\C#N)C(=O)Nc1ccc(C(F)(F)F)cc1 [Teriflunomide, reference compound]",Discontinuation rate because of elevations in hepatic enzymes,[1],1.9%
same,Patients with elevations of ALT to 5-fold the ULN or greater,[1],2.5%
same,Subjects with ALT increase >3×ULN (label: 3-fold the ULN or greater),[1],8.3%
same,Subjects with ALT increase >8×ULN,[1],2.1%
same,Discontinuation reason: Death,[2]; Safety Set,(0.4) %
same,Subjects who prematurely discontinued study treatment,[2]; Safety Set,(16.4) %
same,Subjects with at least one Fatal AE,[2]; Safety Set,(0.4) %
same,Day 1 AESI Electrocardiogram QT prolonged,"[2]; human, in vivo",(0.2) %
same,Day 1 AESI Presyncope,"[2]; human, in vivo",(02) %
same,"AE leading to discontinuation, SOC Blood and lymphatic system disorders","[2]; human, in vivo, 2 year",(0.4) %
same,"AE leading to discontinuation, SOC Cardiac disorders","[2]; human, in vivo, 2 year",(0.4) %
same,"AE leading to discontinuation, SOC Gastrointestinal disorders","[2]; human, in vivo, 2 year",(0.7) %
same,"AE leading to discontinuation, SOC General disorders and administration site conditions","[2]; human, in vivo, 2 year",(0.4) %
same,"AE leading to discontinuation, SOC Hepatobiliary disorders","[2]; human, in vivo, 2 year",(0.4) %
same,"AE leading to discontinuation, SOC Investigations","[2]; human, in vivo, 2 year",(1.8) %
same,"AE leading to discontinuation, SOC Musculoskeletal and connective tissue disorders","[2]; human, in vivo, 2 year",(0.2) %
same,"AE leading to discontinuation, SOC Neoplasms benign, malignant and unspecified (incl cysts and polyps)","[2]; human, in vivo, 2 year",(0.2) %
same,"AE leading to discontinuation, SOC Nervous system disorders","[2]; human, in vivo, 2 year",(0.7) %
same,"AE leading to discontinuation, SOC Pregnancy, puerperium and perinatal conditions","[2]; human, in vivo, 2 year",(0.5) %
same,"AE leading to discontinuation, SOC Psychiatric disorders","[2]; human, in vivo, 2 year",(0.2) %
same,"AE leading to discontinuation, SOC Reproductive system and breast disorders","[2]; human, in vivo, 2 year",(0.2) %
same,"AE leading to discontinuation, SOC Skin and subcutaneous tissue disorders","[2]; human, in vivo, 2 year",(0.4) %
same,"AE leading to discontinuation, SOC Social circumstances","[2]; human, in vivo, 2 year",(0.2) %
same,"AE leading to discontinuation, SOC Surgical and medical procedures","[2]; human, in vivo, 2 year",(0.2) %
same,AESI Effect on heart rate and rhythm (including hypotension),"[2]; human, in vivo, 2 year",(4.2) %
same,AESI Macular edema,"[2]; human, in vivo, 2 year",(0.2) %
same,AESI Non-skin malignancy,"[2]; human, in vivo, 2 year",(0.2) %
same,AESI Skin malignancy,"[2]; human, in vivo, 2 year",(0.2) %
same,"Discontinuation reason: Physician decision, Adverse event","[2]; human, in vivo, 2 year",(1.6) %
same,Discontinuation reason: Pre-specified study treatment discontinuation criteria,"[2]; human, in vivo, 2 year",(2.8) %
same,"Discontinuation reason: Subject decision, Tolerability related","[2]; human, in vivo, 2 year",(0.9) %
same,Incidence of basal cell carcinoma,"[2]; human, in vivo, 2 year",0.2%
same,Overall rate of infections,"[2]; human, in vivo, 2 year",52.1%
same,Subjects discontinued due to AEs or tolerability related reasons,"[2]; human, in vivo, 2 year",2.5%
same,Subjects with at least one Drug-Related AE,"[2]; human, in vivo, 2 year",(42.0) %
same,Subjects with at least one Severe AE,"[2]; human, in vivo, 2 year",(4.6) %
same,TEAE ALT increased,"[2]; human, in vivo, 2 year",9.4%
same,TEAE headache,"[2]; human, in vivo, 2 year",12.7%
same,TEAE nasopharyngitis,"[2]; human, in vivo, 2 year",16.8%
same,TEAE upper respiratory tract infection,"[2]; human, in vivo, 2 year",10.4%
same,Adverse reaction: C-reactive protein increased,"[2]; human, in vivo, 2 years",1%
same,Adverse reaction: Cough,"[2]; human, in vivo, 2 years",2%
same,Adverse reaction: Dizziness,"[2]; human, in vivo, 2 years",3%
same,Adverse reaction: Dyspnea,"[2]; human, in vivo, 2 years",1%
same,Adverse reaction: Hepatic transaminase elevation,"[2]; human, in vivo, 2 years",12%
same,Adverse reaction: Hypercholesterolemia,"[2]; human, in vivo, 2 years",1%
same,Adverse reaction: Hypertension,"[2]; human, in vivo, 2 years",9%
same,Adverse reaction: Pain in extremity,"[2]; human, in vivo, 2 years",3%
same,Adverse reaction: Pyrexia,"[2]; human, in vivo, 2 years",1%
same,Adverse reaction: Somnolence,"[2]; human, in vivo, 2 years",2%
same,Adverse reaction: Urinary tract infection,"[2]; human, in vivo, 2 years",5%
same,Adverse reaction: Vertigo,"[2]; human, in vivo, 2 years",1%
same,AESI Macular edema,[2]; in vivo,none
same,Discontinuation reason: Lost to follow-up,[2]; in vivo,(0.5) %
same,Discontinuation reason: Physician decision,[2]; in vivo,(4.1) %
same,"Discontinuation reason: Physician decision, Lack of efficacy/treatment failure",[2]; in vivo,(1.8) %
same,"Discontinuation reason: Physician decision, Other",[2]; in vivo,(0.7) %
same,Discontinuation reason: Subject decision,[2]; in vivo,(8.7) %
same,"Discontinuation reason: Subject decision, Efficacy related",[2]; in vivo,(2.5) %
same,"Discontinuation reason: Subject decision, Not known",[2]; in vivo,(0.7) %
same,"Discontinuation reason: Subject decision, Other",[2]; in vivo,(4.6) %
same,Reduction from baseline in percent predicted FEV1 at 2 years,[3],4.4%
same,Proportion of Patients with 3-month Confirmed Disability Progression,[4]; Kaplan-Meier estimates at Week 108,13.2%
same,Subjects with 24-week CDA,[4]; up to EOS,9.9%
